According to ChEMBL document CHEMBL1201862, “PubChem BioAssay data set” (2004):
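Step 1: Grow cells in 96-well plates. Step 2: Expose to compound for 48 hours at 5 concentrations. Step 3: Interpolate endpoints linearly; if unreached, use highest concentration. GI50 is the concentration that inhibits growth by half.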 Active and inactive are the calls of the source. No stated cut-off is given here; in the data, active = GI50 up to about 1.1 µM and inactive = higher.

Tests used:
Assay in all cases: NCI tumour cell line growth inhibition, 48 h
COLO 205 = test system: COLO 205
HL-60 = test system: HL-60
HOP-62 = test system: HOP-62
IGROV-1 = test system: IGROV-1
LOX IMVI = test system: LOX IMVI
NCI-H226 = test system: NCI-H226
NCI-H460 = test system: NCI-H460
OVCAR-8 = test system: OVCAR-8
SF-295 = test system: SF-295
UACC-257 = test system: UACC-257
CAKI-1 = test system: CAKI-1
EKVX = test system: EKVX
HCC 2998 = test system: HCC 2998
RXF 393 = test system: RXF 393
SK-MEL-5 = test system: SK-MEL-5

Measured: GI50

CN(C)CCCNc1ccc2ncn3c4ccccc4c(=O)c1c23
inactive: COLO 205 2.49 µM | HL-60 6.41 µM | HOP-62 33.6 µM | IGROV-1 7.66 µM | LOX IMVI 3.51 µM | NCI-H226 7.21 µM | NCI-H460 3.43 µM | OVCAR-8 4.9 µM | SF-295 6.3 µM | UACC-257 14.6 µM

CC1=C(O)/C(=C/C(C)CCC/C(C)=C/C=C/C(C)CCCc2ccoc2)OC1=O (configuration not stated)
inactive: CAKI-1 45.5 µM | COLO 205 35.3 µM | EKVX 25 µM | HCC 2998 23 µM | HL-60 24.7 µM | HOP-62 18.5 µM | LOX IMVI 34.2 µM | NCI-H226 23.2 µM | NCI-H460 30.3 µM | OVCAR-8 34.4 µM | RXF 393 24.7 µM | SF-295 31.9 µM | UACC-257 21.7 µM

O=C(c1ccccc1)c1cn(/N=C\c2ccccc2)c(=O)nc1-c1ccccc1
inactive: COLO 205 > 100 µM | EKVX > 100 µM | HCC 2998 > 100 µM | HOP-62 > 100 µM | LOX IMVI > 100 µM | NCI-H226 > 100 µM | NCI-H460 > 100 µM | OVCAR-8 > 100 µM | RXF 393 > 100 µM | SF-295 > 100 µM | SK-MEL-5 > 100 µM | UACC-257 > 100 µM

CC1c2[nH]c3ccccc3c2CCN1O (configuration not stated)
inactive: CAKI-1 > 100 µM | COLO 205 > 100 µM | EKVX > 100 µM | HCC 2998 > 100 µM | HL-60 > 100 µM | IGROV-1 > 100 µM | LOX IMVI > 100 µM | NCI-H226 23.1 µM | OVCAR-8 > 100 µM | RXF 393 > 100 µM | SF-295 > 100 µM | SK-MEL-5 > 100 µM | UACC-257 > 100 µM

C=C1CCC2C(C)(CO)C(O)CCC2(C)C1C/C=C1/CCOC1=O (configuration not stated)
inactive: CAKI-1 > 100 µM | COLO 205 > 100 µM | EKVX > 100 µM | HCC 2998 > 100 µM | HL-60 > 100 µM | HOP-62 > 100 µM | IGROV-1 > 100 µM | LOX IMVI > 100 µM | NCI-H226 > 100 µM | NCI-H460 > 100 µM | OVCAR-8 > 100 µM | SF-295 > 100 µM | SK-MEL-5 > 100 µM | UACC-257 > 100 µM

NC(=O)C12CCC1C1CCCCC12N1CCOCC1 (configuration not stated)
inactive: CAKI-1 > 100 µM | EKVX > 100 µM | HCC 2998 > 100 µM | HL-60 > 100 µM | HOP-62 > 100 µM | IGROV-1 > 100 µM | LOX IMVI > 100 µM | NCI-H460 > 100 µM | OVCAR-8 > 100 µM | RXF 393 > 100 µM | SF-295 > 100 µM | SK-MEL-5 > 100 µM

NS(=O)(=O)c1ccc(NC(=O)Cc2nc3ccccc3s2)cc1
inactive: CAKI-1 16.5 µM | COLO 205 19.5 µM | EKVX 22.6 µM | HCC 2998 19.5 µM | HL-60 19.1 µM | HOP-62 22.3 µM | IGROV-1 15.7 µM | NCI-H226 17.9 µM | NCI-H460 17.5 µM | OVCAR-8 20.4 µM | RXF 393 18.6 µM | SF-295 19 µM | SK-MEL-5 20.2 µM | UACC-257 15.8 µM

CC1(C)CC2(S(=O)(=O)c3ccccc3)ON1CC2S(=O)(=O)c1ccccc1 (configuration not stated)
inactive: CAKI-1 77.3 µM | COLO 205 > 100 µM | EKVX > 100 µM | HCC 2998 > 100 µM | HL-60 26.4 µM | HOP-62 > 100 µM | IGROV-1 > 100 µM | LOX IMVI 87.1 µM | NCI-H226 > 100 µM | NCI-H460 > 100 µM | OVCAR-8 74.1 µM | RXF 393 48.4 µM | SF-295 > 100 µM | UACC-257 > 100 µM

CCCCCCCCCCCCCCC(C)CCC(=O)O (configuration not stated)
inactive: CAKI-1 > 100 µM | COLO 205 44 µM | EKVX > 100 µM | HOP-62 > 100 µM | IGROV-1 > 100 µM | LOX IMVI 31.6 µM | NCI-H226 > 100 µM | NCI-H460 31.9 µM | OVCAR-8 > 100 µM | RXF 393 > 100 µM | SF-295 > 100 µM | SK-MEL-5 > 100 µM | UACC-257 > 100 µM

Cc1ccc(NC(=O)CC2C(=O)Nc3ccccc3[S+]2[O-])cc1C (configuration not stated)
inactive: CAKI-1 > 100 µM | EKVX > 100 µM | HCC 2998 > 100 µM | HL-60 41.7 µM | IGROV-1 > 100 µM | LOX IMVI 48.6 µM | NCI-H226 > 100 µM | NCI-H460 > 100 µM | OVCAR-8 34 µM | RXF 393 22 µM | SF-295 > 100 µM | SK-MEL-5 73.8 µM | UACC-257 > 100 µM

COC(=O)C1Cc2c(n(C)c3ccccc23)C(c2ccccc2)N1 (configuration not stated)
inactive: CAKI-1 > 100 µM | COLO 205 23 µM | EKVX 92.3 µM | HCC 2998 49.4 µM | HL-60 10.1 µM | IGROV-1 45.8 µM | LOX IMVI 78.7 µM | NCI-H226 22.6 µM | NCI-H460 60.5 µM | OVCAR-8 > 100 µM | SF-295 > 100 µM | SK-MEL-5 21.1 µM | UACC-257 15.2 µM

Cc1cn2c(=O)c3ncn(C4OC(CO)C(O)C4O)c3n(C)c2n1 (configuration not stated)
inactive: CAKI-1 > 100 µM | COLO 205 > 100 µM | EKVX > 100 µM | HCC 2998 > 100 µM | HL-60 > 100 µM | IGROV-1 > 100 µM | LOX IMVI > 100 µM | NCI-H226 > 100 µM | NCI-H460 > 100 µM | OVCAR-8 > 100 µM | RXF 393 > 100 µM | SF-295 > 100 µM | SK-MEL-5 > 100 µM | UACC-257 > 100 µM

CCCNc1ncnc2c1cnn2C
inactive: CAKI-1 > 100 µM | COLO 205 > 100 µM | HCC 2998 > 100 µM | HL-60 > 100 µM | HOP-62 > 100 µM | IGROV-1 > 100 µM | LOX IMVI > 100 µM | NCI-H226 > 100 µM | NCI-H460 > 100 µM | OVCAR-8 > 100 µM | SF-295 > 100 µM | SK-MEL-5 > 100 µM | UACC-257 > 100 µM

Cn1cnnc1Sc1c([N+](=O)[O-])nc(-c2ccc([N+](=O)[O-])cc2)n1C
inactive: CAKI-1 32.7 µM | COLO 205 14.9 µM | EKVX 27.5 µM | HCC 2998 17.5 µM | HOP-62 > 100 µM | IGROV-1 17.5 µM | LOX IMVI 13.6 µM | NCI-H226 20.9 µM | NCI-H460 36.1 µM | OVCAR-8 18.1 µM | SF-295 > 100 µM | SK-MEL-5 16.9 µM | UACC-257 16 µM

O=c1c2ccccc2c(=O)c2c1cc(Cl)c1[nH]c3c([nH]c12)c(Cl)cc1c(=O)c2ccccc2c(=O)c13
inactive: CAKI-1 > 100 µM | COLO 205 > 100 µM | EKVX > 100 µM | HCC 2998 > 100 µM | HL-60 > 100 µM | HOP-62 > 100 µM | IGROV-1 > 100 µM | NCI-H226 > 100 µM | NCI-H460 > 100 µM | OVCAR-8 > 100 µM | RXF 393 > 100 µM | SF-295 > 100 µM | UACC-257 > 100 µM

O/N=C1/C(=C/c2ccc3c(c2)OCO3)CCCC1C(NO)c1ccc2c(c1)OCO2 (configuration not stated)
inactive: CAKI-1 28.6 µM | COLO 205 25.4 µM | EKVX 35.1 µM | HCC 2998 25 µM | HL-60 15.9 µM | HOP-62 21.1 µM | IGROV-1 28.2 µM | NCI-H460 29.4 µM | OVCAR-8 24.6 µM | RXF 393 23.6 µM | SK-MEL-5 17.4 µM | UACC-257 17.8 µM

CC(=O)OC1CC2C(C)(C)OC(=O)CC(OC(C)=O)[C@]2(C)C2CCC3(C)C(=CCC3[C@H]3COC(=O)C3)[C@]12C (some centres not stated)
inactive: CAKI-1 > 100 µM | COLO 205 > 100 µM | EKVX 65.5 µM | HCC 2998 > 100 µM | HL-60 50.1 µM | HOP-62 > 100 µM | IGROV-1 > 100 µM | LOX IMVI > 100 µM | NCI-H226 > 100 µM | NCI-H460 > 100 µM | OVCAR-8 > 100 µM | RXF 393 > 100 µM | SF-295 41.5 µM | SK-MEL-5 > 100 µM

CC1C[C@H](C)CC(C(O)CC2CC(=O)N(Cc3ccccc3)C(=O)C2)C1O (some centres not stated)
inactive: CAKI-1 > 100 µM | COLO 205 > 100 µM | EKVX > 100 µM | HCC 2998 > 100 µM | HL-60 > 100 µM | HOP-62 > 100 µM | IGROV-1 > 100 µM | LOX IMVI > 100 µM | NCI-H226 > 100 µM | NCI-H460 > 100 µM | OVCAR-8 > 100 µM | RXF 393 > 100 µM | SF-295 > 100 µM | UACC-257 > 100 µM

O=C(O)CN(c1ccccc1)S(=O)(=O)c1cccc([N+](=O)[O-])c1
inactive: CAKI-1 > 100 µM | COLO 205 > 100 µM | EKVX > 100 µM | HL-60 > 100 µM | IGROV-1 > 100 µM | LOX IMVI > 100 µM | NCI-H226 > 100 µM | NCI-H460 > 100 µM | OVCAR-8 > 100 µM | RXF 393 > 100 µM | SF-295 > 100 µM | SK-MEL-5 > 100 µM | UACC-257 > 100 µM

C=C1CC[C@@H]2C(C)(C)CCC[C@@]2(C)[C@@H]1Cc1cc(O)ccc1O
inactive: CAKI-1 8.26 µM | COLO 205 15.9 µM | EKVX 4.65 µM | HCC 2998 13.8 µM | HL-60 1.53 µM | HOP-62 9.59 µM | IGROV-1 2.13 µM | LOX IMVI 2.16 µM | NCI-H226 2.55 µM | NCI-H460 14 µM | OVCAR-8 3.88 µM | RXF 393 1.67 µM | SF-295 10.2 µM | SK-MEL-5 7.06 µM | UACC-257 1.93 µM
